Data set [1] concerns the target Stimulator of interferon genes protein (Homo sapiens, UniProt Q86WV6, G230A/R293Q/R71H). In words: Agonist activity at STING R71H/G230A/R293Q mutant (unknown origin) expressed in digitonin -permeabilized HEK293T cells preincubated for 30 mins followed by washout and measured after 5 hrs by Bright-glo luciferase assay. Type of data set: cell-based.
Data set [2] in a line: Toxicity in BALB/c mouse assessed effect on animal survival at 0.67 to 6 mg/kg, IT(Intratumoral) measured upto 22 days. In kind it is organism-based. Particulars: in vivo, other, 528 h, dose 0.67-6 mg/kg, time < 22 day.
Data set [3] in a line: Induction of cytokine production in human PBMC cells assessed as TNF-alpha level incubated for 60 mins followed by washout and measured after 15 hrs. In kind it is functional, cell-based.
Data set [4] addresses T1, Stimulator of interferon genes protein (Homo sapiens, UniProt Q86WV6). Nature of the data set: Agonist activity at STING R232 mutant (unknown origin) expressed in digitonin -permeabilized HEK293T cells preincubated for 30 mins followed by washout and measured after 5 hrs by Bright-glo luciferase assay. In kind it is cell-based.
Target sequence in this assay (Q86WV6 whole entry, looked up, stated change not applied): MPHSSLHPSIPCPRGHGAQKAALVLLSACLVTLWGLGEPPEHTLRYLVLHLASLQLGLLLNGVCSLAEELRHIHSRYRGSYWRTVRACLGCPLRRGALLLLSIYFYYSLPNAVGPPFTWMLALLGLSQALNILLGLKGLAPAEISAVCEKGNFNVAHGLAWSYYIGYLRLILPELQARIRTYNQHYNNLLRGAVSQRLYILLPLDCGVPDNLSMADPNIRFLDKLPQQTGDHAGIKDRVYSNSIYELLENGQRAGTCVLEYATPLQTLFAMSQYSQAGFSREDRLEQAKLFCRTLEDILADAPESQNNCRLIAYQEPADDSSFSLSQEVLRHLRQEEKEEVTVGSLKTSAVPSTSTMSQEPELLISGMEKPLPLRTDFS
Data set [5] can be described thus: Toxicity in BALB/c mouse assessed effect on drug tolerance at 0.67 to 6 mg/kg, IT(Intratumoral) measured upto 22 days. Particulars: in vivo, other, 528 h, dose 0.67-6 mg/kg, time < 22 day. Type of data set: organism-based.
In data set [6] the test system is Stimulator of interferon genes protein (Homo sapiens), Q86WV6 [G230A,R293Q]. Conditions: filed as agonist.
Sequence of Stimulator of interferon genes protein (Homo sapiens), Q86WV6 [G230A,R293Q] (Q86WV6 whole entry G230A/R293Q): as the sequence (Q86WV6 whole entry, looked up, stated change not applied) above, with G230A, R293Q counted along it
Description: Binding affinity to STING G230A/R293Q mutant (unknown origin) assessed as change in melting temperature by differential scanning fluorimetry analysis
Data set [7] addresses Stimulator of interferon genes protein (Homo sapiens, UniProt Q86WV6, R293Q). Nature of the data set: Agonist activity at STING R293Q mutant (unknown origin) expressed in digitonin -permeabilized HEK293T cells preincubated for 30 mins followed by washout and measured after 5 hrs by Bright-glo luciferase assay. Type of data set: cell-based.
The nature of data set [8]: Agonist activity at STING R232H mutant (unknown origin) expressed in digitonin -permeabilized HEK293T cells preincubated for 30 mins followed by washout and measured after 5 hrs by Bright-glo luciferase assay. Type of data set: cell-based. Conditions: Homo sapiens, HEK-293T.
The test system of data set [9] is 4T1. Nature of the data set: Antitumor immunity against mouse 4T1 cells xenografted in BALB/c syngeneic mouse model assessed as reduction in tumor volume measured upto 22 days administered as IT(Intratumoral) dose. Particulars: time <= 22.0 day. Type of data set: functional.
Data set [10] is described as follows: Induction of cytokine production in human PBMC cells assessed as IFN-alpha level incubated for 60 mins followed by washout and measured after 15 hrs. Type of data set: functional, cell-based.
A short description of data set [11]: Toxicity in BALB/c mouse assessed effect on body weight change at 0.67 to 6 mg/kg, IT(Intratumoral) measured upto 22 days. In kind it is organism-based. Conditions: in vivo, other, 528 h, dose 0.67-6 mg/kg, time < 22 day.
Data set [12] concerns the target T1, Stimulator of interferon genes protein. In words: Agonist activity at wild type STING (unknown origin) expressed in HEK293T cells measured after 7 hrs by Bright-glo luciferase assay. Type of data set: cell-based.
Target sequence in this assay (Q86WV6 whole entry): as the sequence (Q86WV6 whole entry, looked up, stated change not applied) above
A short description of data set [13]: Induction of cytokine production in human PBMC cells assessed as IFN-gamma level incubated for 60 mins followed by washout and measured after 15 hrs. In kind it is functional, cell-based.
A short description of data set [14]: Toxicity in BALB/c mouse assessed body weight loss at 6 mg/kg, IT(Intratumoral) measured after 7 days relative to control. Type of data set: organism-based. Conditions: in vivo, other, 168 h, time 7 day.
The test system of data set [15] is Stimulator of interferon genes protein (Homo sapiens), Q86WV6 [UNDEFINED MUTATION]. Particulars: filed as agonist.
Sequence of Stimulator of interferon genes protein (Homo sapiens), Q86WV6 [UNDEFINED MUTATION] (Q86WV6 whole entry, looked up, stated change not applied): as above
Description: Binding affinity to STING R232 mutant (unknown origin) assessed as change in melting temperature by differential scanning fluorimetry analysis
Data set [16] deals with Stimulator of interferon genes protein (Homo sapiens, UniProt Q86WV6, G230A/R293Q). Nature of the data set: Agonist activity at STING G230A/R293Q mutant (unknown origin) expressed in digitonin -permeabilized HEK293T cells preincubated for 30 mins followed by washout and measured after 5 hrs by Bright-glo luciferase assay. Type of data set: cell-based.
Sequence of Stimulator of interferon genes protein (Homo sapiens, UniProt Q86WV6, G230A/R293Q) (Q86WV6 whole entry G230A/R293Q): as the sequence (Q86WV6 whole entry, looked up, stated change not applied) above, with G230A, R293Q counted along it
Data set [17] addresses T1, Stimulator of interferon genes protein. In words: Agonist activity at wild type STING (unknown origin) expressed in HEK293T cells preincubated for 30 mins followed by washout and measured after 6.5 hrs by Bright-glo luciferase assay. Type of data set: cell-based.
Target sequence in this assay (Q86WV6 whole entry): as the sequence (Q86WV6 whole entry, looked up, stated change not applied) above
Data set [18] is described as follows: Stability in human plasma assessed as half life at 5 uM measured upto 120 mins by UPLC/MS analysis. Type of data set: ADME, cell-free.
A short description of data set [19]: Stability in mouse plasma assessed as half life at 5 uM measured upto 120 mins by UPLC/MS analysis. Type of data set: ADME, cell-free.
The nature of data set [20]: Toxicity in BALB/c mouse assessed effect on drug tolerance at 0.22 to 2 mg/kg, IT(Intratumoral) measured upto 22 days. Type of data set: organism-based. Conditions: in vivo, other, 528 h, dose 0.22-2 mg/kg, time < 22 day.
Data set [21] in a line: Toxicity in BALB/c mouse assessed effect on animal survival at 0.22 to 2 mg/kg, IT(Intratumoral) measured upto 22 days. Conditions: in vivo, other, 528 h, dose 0.22-2 mg/kg, time < 22 day. Type of data set: organism-based.
Data set [22] concerns 4T1. In words: Antitumor immunity against mouse 4T1 cells xenografted in BALB/c syngeneic mouse model assessed as tumor growth inhibition at 2 mg/kg, IT(Intratumoral) measured upto 22 days relative to control. In kind it is functional. Conditions: 4T1, 528 h, time <= 22 day, read-out: TGI.
Data set [23] in a line: Toxicity in BALB/c mouse assessed effect on body weight change at 0.22 to 2 mg/kg, IT(Intratumoral) measured upto 22 days. Type of data set: organism-based. Particulars: in vivo, other, 528 h, dose 0.22-2 mg/kg, time < 22 day.
Data set [24] deals with 4T1. In words: Antitumor immunity against mouse 4T1 cells xenografted in BALB/c syngeneic mouse model assessed as tumor growth inhibition at 0.67 mg/kg, IT(Intratumoral) measured upto 22 days relative to control. In kind it is functional. Particulars: 4T1, 528 h, time <= 22 day, read-out: TGI.
For data set [25], the system named is 4T1. In words: Antitumor immunity against mouse 4T1 cells xenografted in BALB/c syngeneic mouse model assessed as increase in AH1positive CD8 T cell level at 2 mg/kg, IT(Intratumoral) measured upto 22 days. Type of data set: functional, organism-based. Conditions: time <= 22.0 day.

Structures are written as SMILES. Activity calls are given as the source filed them. No cut-off for these calls is given here.

Sequence of Stimulator of interferon genes protein (Homo sapiens, UniProt Q86WV6, G230A/R293Q/R71H) (Q86WV6 whole entry R71H/G230A/R293Q): as the sequence (Q86WV6 whole entry, looked up, stated change not applied) above, with R71H, G230A, R293Q counted along it
Sequence of Stimulator of interferon genes protein (Homo sapiens, UniProt Q86WV6, R293Q) (Q86WV6 whole entry R293Q): as the sequence (Q86WV6 whole entry, looked up, stated change not applied) above, with R293Q counted along it

As usually defined, the EC50 is the concentration that produces a half-maximal response. The term ΔTm denotes the change in melting temperature against a reference sample. Consider `Nc1ncnc2c1ncn2[C@@H]1O[C@@H]2/C=C\P(=O)(O)O[C@H]3[C@@H](F)[C@H](n4cnc5c(N)ncnc54)O[C@@H]3COP(=O)(O)O[C@H]2[C@H]1F`, for which the 50% effective concentration (EC50) was determined as 100 nM in data set [1]; 76000 nM in data set [3] (Homo sapiens, PBMC); 30 nM in data set [4]; 1050 nM in [7]; 12000 nM in [8]; 110000 nM in data set [10] (Homo sapiens, PBMC). Further, the EC50 in data set [12] amounted to 21500 nM; in data set [13] (Homo sapiens, PBMC) it was 36000 nM; in data set [16], 100 nM; in data set [17], 50100 nM. The Activity entry in data set [2] was “Non-Toxic”; in data set [5] it was “Non-Toxic”; with 4T1 [9], “Dose-Dependent Effect”; in [11] it was “Non-Toxic”; in [14], 3%. Besides, the ΔTm in [6] is 11.3 °C; in data set [15], 6 °C.

Broadly, the half-life is how long it takes for the measured level to halve. For the compound `CC(C)(C)C(=O)OCOP1(=O)/C=C/[C@H]2O[C@@H](n3cnc4c(N)ncnc43)[C@H](F)[C@@H]2OP(=O)(OCOC(=O)C(C)(C)C)OC[C@H]2O[C@@H](n3cnc4c(N)ncnc43)[C@H](F)[C@@H]2O1` (stereo in doubt; 11C), the EC50 is 40 nM in data set [3] (pbmc); 60 nM in [10] (pbmc); 12 nM in data set [12]; 50 nM in data set [13] (pbmc); 10 nM in [17]. Besides, the figures for the half-life at 5 µM in data set [18] and in data set [19] were 49 min and 4 min, respectively.

As to `CCC(C)(C)C(=O)OCOP1(=O)/C=C/[C@H]2O[C@@H](n3cnc4c(N)ncnc43)[C@H](F)[C@@H]2OP(=O)(OCOC(=O)C(C)(C)CC)OC[C@H]2O[C@@H](n3cnc4c(N)ncnc43)[C@H](F)[C@@H]2O1` (stereo in doubt; 13C), the EC50 in data set [3] (Homo sapiens, PBMC) was 120 nM; in [10] (Homo sapiens, PBMC) it was 60 nM; in [12], 7 nM; in [13] (Homo sapiens, PBMC), 20 nM; in data set [17], 35 nM. For the same compound, the half-life at 5 µM in data set [18] is 86 min; in [19], 4 min.

Regarding `CC1(C(=O)OCOP2(=O)/C=C/[C@H]3O[C@@H](n4cnc5c(N)ncnc54)[C@H](F)[C@@H]3OP(=O)(OCOC(=O)C3(C)CCCCC3)OC[C@H]3O[C@@H](n4cnc5c(N)ncnc54)[C@H](F)[C@@H]3O2)CCCCC1` (stereo in doubt; 14C) [listing 1 of 2 here], the EC50 in [3] (pbmc) was 60 nM; in [10] (pbmc) it was 110 nM; in data set [12], 13 nM; in data set [13] (pbmc) it was 70 nM; in data set [17] it was 30 nM. The half-life at 5 µM is 130 min in [18] and 21 min in [19]. For the same compound, the Activity result in data set [20], in data set [21] and in [23] was “Non-Toxic” each time. The inhibition in vivo at 2 mg/kg with 4T1 [22] is 80%. In addition, in the data set on 4T1 [24], the inhibition in vivo at 0.67 mg/kg was 70%.

For the compound `CC1(C(=O)OCOP2(=O)/C=C/[C@H]3O[C@@H](n4cnc5c(N)ncnc54)[C@H](F)[C@@H]3OP(=O)(OCOC(=O)C3(C)CCCCC3)OC[C@H]3O[C@@H](n4cnc5c(N)ncnc54)[C@H](F)[C@@H]3O2)CCCCC1` (stereo in doubt; 14C) [listing 2 of 2 here], in the data set on 4T1 [9], the Activity entry was “Dose-Dependent Effect”. Besides, in the data set with 4T1 [25], the result was Active.

For `CCCCCCCC(=O)OCOP1(=O)/C=C/[C@H]2O[C@@H](n3cnc4c(N)ncnc43)[C@H](F)[C@@H]2OP(=O)(OCOC(=O)CCCCCCC)OC[C@H]2O[C@@H](n3cnc4c(N)ncnc43)[C@H](F)[C@@H]2O1` (stereo in doubt; 15C), the EC50 in [3] (pbmc) was determined as 280 nM; in data set [10] (pbmc), 120 nM; in [12], 3 nM; in data set [13] (pbmc) it was 170 nM; in data set [17], 5 nM. The half-life at 5 µM in data set [18] worked out at 19 min; in data set [19] it was 3 min.
